# Starred links: 1 amine or outer side, 2 acyl side, 3 side chain; linkers in the order of their positions; H or OH if unused. Positions of bridges follow the written chain, without caps; N, C: chain ends. Non-standard residues stand in square brackets, D forms with d. Residues, ends and D or L forms follow the SMILES beside them. *: point of attachment. Bip(4'-NHCO-C6H4-3-CH2COOH) = N[C@@H](Cc1ccc(-c2ccc(NC(=O)c3cccc(CC(=O)O)c3)cc2)cc1)C(=O)O; Bip(4'-NHCO-C6H4-4-CH2COOH) = N[C@@H](Cc1ccc(-c2ccc(NC(=O)c3ccc(CC(=O)O)cc3)cc2)cc1)C(=O)O; X43 = O=C(O)[C@@H]1CCC[C@H](C(=O)Nc2ccc(-c3ccc(C[C@H](N[*:1])C(=O)[*:2])cc3)cc2)C1; X34 = Cc1cc(C(=O)O)cc(C(=O)Nc2ccc(-c3ccc(C[C@H](N[*:1])C(=O)[*:2])cc3)cc2)c1; X52 = Cc1c(C(=O)O)cccc1C(=O)Nc1ccc(-c2ccc(C[C@H](N[*:1])C(=O)[*:2])cc2)cc1; X77 = Cc1ccc(C(=O)O)cc1C(=O)Nc1ccc(-c2ccc(C[C@H](N[*:1])C(=O)[*:2])cc2)cc1; X5 = Cn1nc(C(=O)Nc2ccc(-c3ccc(C[C@H](N[*:1])C(=O)[*:2])cc3)cc2)c2ccccc21; Bip(4'-NH) = O=C([C@H](Cc1ccc(-c2ccc(N[*:3])cc2)cc1)N[*:1])[*:2]; dArg(ω-Bn(3-CH2OH)) = N=C(NCCC[C@@H](N)C(=O)O)NCc1cccc(CO)c1; Indazole3carbonyl(1-CH2COOH) = O=C(O)Cn1nc(C(=O)*)c2ccccc21; X72 = N=C(N)Nc1ccc(CCNC(=N)NCCC[C@@H](N[*:1])C(=O)[*:2])cc1; Bip(4'-NHAc) = CC(=O)Nc1ccc(-c2ccc(C[C@H](N)C(=O)O)cc2)cc1; X25 = N=C(N)Nc1cccc(CNC(=N)NCCC[C@@H](N[*:1])C(=O)[*:2])c1; X7 = N=C(NCCC[C@@H](N[*:1])C(=O)[*:2])NCc1ccc2occc2c1; Ala(imidazol-2-yl) = N[C@@H](Cc1ncc[nH]1)C(=O)O; Ala(morpholin-4-yl) = N[C@@H](CN1CCOCC1)C(=O)O; Benzoyl(3-OCH2COOH) = O=C(O)COc1cccc(C(=O)*)c1; Bip = N[C@@H](Cc1ccc(-c2ccccc2)cc1)C(=O)O; Ala(2-furyl) = N[C@@H](Cc1ccco1)C(=O)O; Cha = N[C@@H](CC1CCCCC1)C(=O)O; Sar = CNCC(=O)O
# Target: TNFα (Homo sapiens, UniProt P01375)
# Assay: TNF-Induced HEK-Blue Assay
# Assay type: cell-based
# Conditions: not given
# Chain of TNFα (P01375 77-233 limits assumed): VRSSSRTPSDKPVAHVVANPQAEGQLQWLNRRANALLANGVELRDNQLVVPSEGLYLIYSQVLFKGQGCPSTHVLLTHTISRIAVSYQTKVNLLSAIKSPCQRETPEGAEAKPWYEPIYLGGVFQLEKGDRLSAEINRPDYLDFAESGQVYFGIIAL
row,SMILES,IC50 [nM]
1,CC(C)C[C@@H]1NC(=O)[C@H](CCCNC(=N)N)NC(=O)[C@H](C(C)C)NC(=O)[C@@H]2CCCN2C(=O)[C@H](C(C)C)NC(=O)[C@@H](CCCNC(=N)NCc2cccc(NC(=N)N)c2)NC(=O)[C@H](CC(=O)O)NC(=O)[C@@H]2CCCN2C(=O)CN(C)C(=O)[C@H](Cc2ccc(-c3ccc(NC(=O)c4nn(CC(=O)O)c5ccccc45)cc3)cc2)NC(=O)[C@H](Cc2ccc(-c3ccccc3)cc2)NC(=O)[C@H](CN2CCOCC2)NC(=O)CSC[C@@H](C(=O)NCC(N)=O)NC1=O [Example 435] ({CH2CO}-[Ala(morpholin-4-yl)][Bip][Bip(4'-NH)](Indazole3carbonyl(1-CH2COOH))[Sar]PD[X25]VPVRLCG-NH2; thioether N-13),< 50
2,CC(C)C[C@@H]1NC(=O)[C@H](CCCNC(=N)N)NC(=O)[C@H](C(C)C)NC(=O)[C@@H]2CCCN2C(=O)[C@H](C(C)C)NC(=O)[C@@H](CCCNC(=N)NCCc2ccc(NC(=N)N)cc2)NC(=O)[C@H](CC(=O)O)NC(=O)[C@@H]2CCCN2C(=O)CN(C)C(=O)[C@H](Cc2ccc(-c3ccc(NC(=O)c4nn(CC(=O)O)c5ccccc45)cc3)cc2)NC(=O)[C@H](Cc2ccc(-c3ccccc3)cc2)NC(=O)[C@H](CN2CCOCC2)NC(=O)CSC[C@@H](C(=O)NCC(N)=O)NC1=O [Example 436] ({CH2CO}-[Ala(morpholin-4-yl)][Bip][Bip(4'-NH)](Indazole3carbonyl(1-CH2COOH))[Sar]PD[X72]VPVRLCG-NH2; thioether N-13),< 50
3,CC(C)C[C@@H]1NC(=O)[C@H](CCCNC(=N)N)NC(=O)[C@H](C(C)C)NC(=O)[C@@H]2CCCN2C(=O)[C@H](C(C)C)NC(=O)[C@@H](CCCNC(=N)NCc2ccc3occc3c2)NC(=O)[C@H](CC(=O)O)NC(=O)[C@@H]2CCCN2C(=O)CN(C)C(=O)[C@H](Cc2ccc(-c3ccc(NC(=O)c4nn(CC(=O)O)c5ccccc45)cc3)cc2)NC(=O)[C@H](Cc2ccc(-c3ccccc3)cc2)NC(=O)[C@H](CN2CCOCC2)NC(=O)CSC[C@@H](C(=O)NCC(N)=O)NC1=O [Example 449] ({CH2CO}-[Ala(morpholin-4-yl)][Bip][Bip(4'-NH)](Indazole3carbonyl(1-CH2COOH))[Sar]PD[X7]VPVRLCG-NH2; thioether N-13),< 50

# Same assay, conditions: HEK-Blue-CD40L cells, NF-kB-driven secreted alkaline phosphatase reporter; TNFα 0.5 ng/ml; 18 h; read-out: TNF induced HEK-Blue assay IC50 value
row,SMILES,IC50 [nM]
1,CC(C)C[C@@H]1NC(=O)[C@H](CCCNC(=N)N)NC(=O)[C@H](C(C)C)NC(=O)[C@@H]2CCCN2C(=O)[C@H](C(C)C)NC(=O)[C@@H](CCCNC(=N)NCc2cccc(NC(=N)N)c2)NC(=O)[C@H](CC(=O)O)NC(=O)[C@@H]2CCCN2C(=O)CN(C)C(=O)[C@H](Cc2ccc(-c3ccc(NC(=O)c4nn(C)c5ccccc45)cc3)cc2)NC(=O)[C@H](Cc2ccc(-c3ccccc3)cc2)NC(=O)[C@H](CN2CCOCC2)NC(=O)CSC[C@@H](C(=O)NCC(N)=O)NC1=O [Example 438] ({CH2CO}-[Ala(morpholin-4-yl)][Bip][X5][Sar]PD[X25]VPVRLCG-NH2; thioether N-13),50 to 200
2,CC(C)C[C@@H]1NC(=O)[C@H](CCCNC(=N)N)NC(=O)[C@H](C(C)C)NC(=O)[C@@H]2CCCN2C(=O)[C@H](C(C)C)NC(=O)[C@@H](CCCNC(=N)NCCc2ccc(NC(=N)N)cc2)NC(=O)[C@H](CC(=O)O)NC(=O)[C@@H]2CCCN2C(=O)CN(C)C(=O)[C@H](Cc2ccc(-c3ccc(NC(=O)c4nn(C)c5ccccc45)cc3)cc2)NC(=O)[C@H](Cc2ccc(-c3ccccc3)cc2)NC(=O)[C@H](CN2CCOCC2)NC(=O)CSC[C@@H](C(=O)NCC(N)=O)NC1=O [Example 439] ({CH2CO}-[Ala(morpholin-4-yl)][Bip][X5][Sar]PD[X72]VPVRLCG-NH2; thioether N-13),50 to 200
3,CC[C@H](C)[C@@H]1NC(=O)[C@@H](CCCNC(=N)N)NC(=O)[C@H](CC(=O)O)NC(=O)[C@H](Cc2cnc[nH]2)NC(=O)CN(C)C(=O)[C@H](Cc2ccc(-c3ccc(NC(=O)c4cccc(OCC(=O)O)c4)cc3)cc2)NC(=O)[C@H](Cc2ccc(-c3ccccc3)cc2)NC(=O)[C@H](CN2CCOCC2)NC(=O)CSC[C@@H](C(=O)NCC(N)=O)NC(=O)[C@H](CC(C)C)NC(=O)[C@H](Cc2cnc[nH]2)NC(=O)[C@H](C(C)C)NC(=O)[C@@H]2CCCN2C1=O [Example 441] ({CH2CO}-[Ala(morpholin-4-yl)][Bip][Bip(4'-NH)](Benzoyl(3-OCH2COOH))[Sar]HD[dR]IPVHLCG-NH2; thioether N-13),< 50
4,CC[C@H](C)[C@@H]1NC(=O)[C@@H](CCCNC(=N)N)NC(=O)[C@H](CC(=O)O)NC(=O)[C@@H]2CCCN2C(=O)CN(C)C(=O)[C@H](Cc2ccc(-c3ccc(NC(=O)c4cccc(OCC(=O)O)c4)cc3)cc2)NC(=O)[C@H](Cc2ccc(-c3ccccc3)cc2)NC(=O)[C@H](CC2CCCCC2)NC(=O)CSC[C@@H](C(=O)NCC(N)=O)NC(=O)[C@H](CC(C)C)NC(=O)[C@H](Cc2cnc[nH]2)NC(=O)[C@H](C(C)C)NC(=O)[C@@H]2CCCN2C1=O [Example 442] ({CH2CO}-[Cha][Bip][Bip(4'-NH)](Benzoyl(3-OCH2COOH))[Sar]PD[dR]IPVHLCG-NH2; thioether N-13),50 to 200
5,CC[C@H](C)[C@@H]1NC(=O)[C@@H](CCCNC(=N)N)NC(=O)[C@H](CC(=O)O)NC(=O)[C@H](Cc2cnc[nH]2)NC(=O)CN(C)C(=O)[C@H](Cc2ccc(-c3ccc(NC(=O)c4cc(C)cc(C(=O)O)c4)cc3)cc2)NC(=O)[C@H](Cc2ccc(-c3ccccc3)cc2)NC(=O)[C@H](CC2CCCCC2)NC(=O)CSC[C@@H](C(=O)NCC(N)=O)NC(=O)[C@H](CC(C)C)NC(=O)[C@H](Cc2cnc[nH]2)NC(=O)[C@H](C(C)C)NC(=O)[C@@H]2CCCN2C1=O [Example 443] ({CH2CO}-[Cha][Bip][X34][Sar]HD[dR]IPVHLCG-NH2; thioether N-13),< 50
6,CC[C@H](C)[C@@H]1NC(=O)[C@@H](CCCNC(=N)N)NC(=O)[C@H](CC(=O)O)NC(=O)[C@H](Cc2cnc[nH]2)NC(=O)CN(C)C(=O)[C@H](Cc2ccc(-c3ccc(NC(=O)c4cccc(CC(=O)O)c4)cc3)cc2)NC(=O)[C@H](Cc2ccc(-c3ccccc3)cc2)NC(=O)[C@H](CC2CCCCC2)NC(=O)CSC[C@@H](C(=O)NCC(N)=O)NC(=O)[C@H](CC(C)C)NC(=O)[C@H](Cc2cnc[nH]2)NC(=O)[C@H](C(C)C)NC(=O)[C@@H]2CCCN2C1=O [Example 444] ({CH2CO}-[Cha][Bip][Bip(4'-NHCO-C6H4-3-CH2COOH)][Sar]HD[dR]IPVHLCG-NH2; thioether N-13),< 50
7,CC[C@H](C)[C@@H]1NC(=O)[C@@H](CCCNC(=N)N)NC(=O)[C@H](CC(=O)O)NC(=O)[C@H](Cc2cnc[nH]2)NC(=O)CN(C)C(=O)[C@H](Cc2ccc(-c3ccc(NC(=O)c4ccc(CC(=O)O)cc4)cc3)cc2)NC(=O)[C@H](Cc2ccc(-c3ccccc3)cc2)NC(=O)[C@H](CC2CCCCC2)NC(=O)CSC[C@@H](C(=O)NCC(N)=O)NC(=O)[C@H](CC(C)C)NC(=O)[C@H](Cc2cnc[nH]2)NC(=O)[C@H](C(C)C)NC(=O)[C@@H]2CCCN2C1=O [Example 445] ({CH2CO}-[Cha][Bip][Bip(4'-NHCO-C6H4-4-CH2COOH)][Sar]HD[dR]IPVHLCG-NH2; thioether N-13),< 50
8,CC[C@H](C)[C@@H]1NC(=O)[C@@H](CCCNC(=N)N)NC(=O)[C@H](CC(=O)O)NC(=O)[C@H](Cc2cnc[nH]2)NC(=O)CN(C)C(=O)[C@H](Cc2ccc(-c3ccc(NC(=O)[C@H]4CCC[C@@H](C(=O)O)C4)cc3)cc2)NC(=O)[C@H](Cc2ccc(-c3ccccc3)cc2)NC(=O)[C@H](CC2CCCCC2)NC(=O)CSC[C@@H](C(=O)NCC(N)=O)NC(=O)[C@H](CC(C)C)NC(=O)[C@H](Cc2cnc[nH]2)NC(=O)[C@H](C(C)C)NC(=O)[C@@H]2CCCN2C1=O [Example 446] ({CH2CO}-[Cha][Bip][X43][Sar]HD[dR]IPVHLCG-NH2; thioether N-13),50 to 200
9,CC[C@H](C)[C@@H]1NC(=O)[C@@H](CCCNC(=N)N)NC(=O)[C@H](CC(=O)O)NC(=O)[C@H](Cc2cnc[nH]2)NC(=O)CN(C)C(=O)[C@H](Cc2ccc(-c3ccc(NC(=O)c4cccc(C(=O)O)c4C)cc3)cc2)NC(=O)[C@H](Cc2ccc(-c3ccccc3)cc2)NC(=O)[C@H](CC2CCCCC2)NC(=O)CSC[C@@H](C(=O)NCC(N)=O)NC(=O)[C@H](CC(C)C)NC(=O)[C@H](Cc2cnc[nH]2)NC(=O)[C@H](C(C)C)NC(=O)[C@@H]2CCCN2C1=O [Example 447] ({CH2CO}-[Cha][Bip][X52][Sar]HD[dR]IPVHLCG-NH2; thioether N-13),50 to 200
10,CC(C)C[C@@H]1NC(=O)[C@H](CCCNC(=N)N)NC(=O)[C@H](C(C)C)NC(=O)[C@@H]2CCCN2C(=O)[C@H](C(C)C)NC(=O)[C@@H](CCCNC(=N)NCc2cccc(CO)c2)NC(=O)[C@H](CC(=O)O)NC(=O)[C@@H]2CCCN2C(=O)CN(C)C(=O)[C@H](Cc2ccc(-c3ccc(NC(=O)c4nn(C)c5ccccc45)cc3)cc2)NC(=O)[C@H](Cc2ccc(-c3ccccc3)cc2)NC(=O)[C@H](CN2CCOCC2)NC(=O)CSC[C@@H](C(=O)NCC(N)=O)NC1=O [Example 448] ({CH2CO}-[Ala(morpholin-4-yl)][Bip][X5][Sar]PD[dArg(ω-Bn(3-CH2OH))]VPVRLCG-NH2; thioether N-13),< 50
11,CC[C@H](C)[C@@H]1NC(=O)[C@@H](CCCNC(=N)N)NC(=O)[C@H](CC(=O)O)NC(=O)[C@H](Cc2cnc[nH]2)NC(=O)CN(C)C(=O)[C@H](Cc2ccc(-c3ccc(NC(=O)c4cc(C(=O)O)ccc4C)cc3)cc2)NC(=O)[C@H](Cc2ccc(-c3ccccc3)cc2)NC(=O)[C@H](CC2CCCCC2)NC(=O)CSC[C@@H](C(=O)NCC(N)=O)NC(=O)[C@H](CC(C)C)NC(=O)[C@H](Cc2cnc[nH]2)NC(=O)[C@H](C(C)C)NC(=O)[C@@H]2CCCN2C1=O [Example 450] ({CH2CO}-[Cha][Bip][X77][Sar]HD[dR]IPVHLCG-NH2; thioether N-13),< 50
12,CC(=O)Nc1ccc(-c2ccc(C[C@@H]3NC(=O)[C@H](Cc4ccc(-c5ccccc5)cc4)NC(=O)[C@H](CC4CCCCC4)NC(=O)CSC[C@@H](C(=O)NCC(N)=O)NC(=O)[C@H](CC(C)C)NC(=O)[C@H](Cc4ncc[nH]4)NC(=O)[C@H](C(C)C)NC(=O)[C@@H]4CCCN4C(=O)[C@H](C(C)C)NC(=O)[C@@H](CCCNC(=N)N)NC(=O)[C@H](CC(=O)O)NC(=O)[C@H](Cc4ccco4)NC(=O)CN(C)C3=O)cc2)cc1 [Example 451] ({CH2CO}-[Cha][Bip][Bip(4'-NHAc)][Sar][Ala(2-furyl)]D[dR]VPV[Ala(imidazol-2-yl)]LCG-NH2; thioether N-13),< 50

# Reference: patent US20250145665A1, “MACROCYCLIC PEPTIDES USEFUL AS MODULATORS OF TNF ALPHA” (Bristol-Myers Squibb Company, priority 2023, published 2025)
